Measured values taken from ChEMBL document CHEMBL1201862, “PubChem BioAssay data set” (2004).
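Step 1: Grow cells in 96-well plates. Step 2: Expose to compound for 48 hours at 5 concentrations. Step 3: Interpolate endpoints linearly; if unreached, use highest concentration. Abbreviation: GI50, concentration required for 50% inhibition of growth.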 Active and inactive are the calls of the source. Rule as the data show it: active = GI50 up to about 1.1 µM and inactive = higher.

Experiments:
Experiment in all cases: NCI tumour cell line growth inhibition, 48 h
Malme-3M = test system: Malme-3M
HOP-92 = test system: HOP-92
HT-29 = test system: HT-29
TK-10 = test system: TK-10
OVCAR-3 = test system: OVCAR-3
NCI-H460 = test system: NCI-H460
SK-OV-3 = test system: SK-OV-3
MDA-MB-231 = test system: MDA-MB-231
UACC-62 = test system: UACC-62
SF-539 = test system: SF-539
CCRF-CEM = test system: CCRF-CEM
SN12C = test system: SN12C
DU-145 = test system: DU-145
HCT-15 = test system: HCT-15
IGROV-1 = test system: IGROV-1
SW-620 = test system: SW-620
OVCAR-5 = test system: OVCAR-5
CAKI-1 = test system: CAKI-1
SK-MEL-5 = test system: SK-MEL-5
KM12 = test system: KM12

Compound	GI50 (Malme-3M)	GI50 (HOP-92)	GI50 (HT-29)	GI50 (TK-10)	GI50 (OVCAR-3)	GI50 (NCI-H460)	GI50 (SK-OV-3)	GI50 (MDA-MB-231)	GI50 (UACC-62)	GI50 (SF-539)	GI50 (CCRF-CEM)	GI50 (SN12C)	GI50 (DU-145)	GI50 (HCT-15)	GI50 (IGROV-1)	GI50 (SW-620)	GI50 (OVCAR-5)	GI50 (CAKI-1)	GI50 (SK-MEL-5)	GI50 (KM12)
CCCCCCCN(CCCCCCC)CC(O)c1cc2ccccc2c2cc(Br)ccc12 (centres undefined)	19.5 µM (inactive)	19.2 µM (inactive)	67 µM (inactive)	47.6 µM (inactive)	17.9 µM (inactive)	23.1 µM (inactive)	> 100 µM (inactive)	5.98 µM (inactive)	20.4 µM (inactive)	> 100 µM (inactive)	40.9 µM (inactive)	6.58 µM (inactive)	8.07 µM (inactive)	7.53 µM	62.1 µM (inactive)	23.1 µM (inactive)	> 100 µM (inactive)	47.6 µM (inactive)		
Cc1ccc(C[N+](C)(C)N)cc1C	> 10 µM (inactive)	> 10 µM (inactive)	> 10 µM (inactive)	> 10 µM (inactive)	> 10 µM (inactive)	> 10 µM (inactive)	> 10 µM (inactive)	> 10 µM (inactive)	> 10 µM (inactive)	> 10 µM (inactive)	> 10 µM (inactive)	> 10 µM (inactive)	> 10 µM (inactive)	> 10 µM	> 10 µM (inactive)	> 10 µM (inactive)	> 10 µM (inactive)	> 10 µM (inactive)	> 10 µM (inactive)	> 10 µM (inactive)
NC12c3c4cccc3Oc3cccc(c31)Oc1cccc(c12)O4		> 50 µM (inactive)	> 50 µM (inactive)		> 50 µM (inactive)	> 50 µM (inactive)	> 50 µM (inactive)	> 50 µM (inactive)	> 50 µM (inactive)	> 50 µM (inactive)	> 50 µM (inactive)	> 50 µM (inactive)	> 50 µM (inactive)	> 50 µM	> 50 µM (inactive)	> 50 µM (inactive)	> 50 µM (inactive)	> 50 µM (inactive)		> 50 µM (inactive)
CCCCCCCCCCOC1C(C(C)OCCCN(C)C)OC2OC3(CCCCC3)OC21 (centres undefined)	15.2 µM (inactive)	3.4 µM (inactive)	2.41 µM (inactive)	23.1 µM (inactive)	14.7 µM (inactive)	3.08 µM (inactive)	18.5 µM (inactive)	15.3 µM (inactive)	13.3 µM (inactive)		10.7 µM (inactive)	16.3 µM (inactive)	17.1 µM (inactive)	1.36 µM	14.3 µM (inactive)	12.7 µM (inactive)	11.7 µM (inactive)	13.7 µM (inactive)	15.8 µM (inactive)	
O=C1/C(=C/c2n[nH]cc2-c2ccc(Cl)cc2)C(=O)N(c2ccccc2)C1c1ccccc1 (centres undefined)	22.9 µM (inactive)	23.4 µM (inactive)	12.3 µM (inactive)	27.5 µM (inactive)	6.28 µM (inactive)	26.4 µM (inactive)	15.5 µM (inactive)	18.9 µM (inactive)	11.5 µM (inactive)	22.3 µM (inactive)	17.6 µM (inactive)	29.1 µM (inactive)	20.6 µM (inactive)	15 µM	16.6 µM (inactive)	18.3 µM (inactive)		10.1 µM (inactive)	13.8 µM (inactive)	20.9 µM (inactive)
Cc1cc(C)n(C2OC(CO)C(O)C(O)C2O)c(=S)c1C#N (centres undefined)	> 100 µM (inactive)	> 100 µM (inactive)	> 100 µM (inactive)	> 100 µM (inactive)	> 100 µM (inactive)	> 100 µM (inactive)		> 100 µM (inactive)	> 100 µM (inactive)	> 100 µM (inactive)	> 100 µM (inactive)	> 100 µM (inactive)	> 100 µM (inactive)	> 100 µM	> 100 µM (inactive)	> 100 µM (inactive)	> 100 µM (inactive)	> 100 µM (inactive)	> 100 µM (inactive)	> 100 µM (inactive)
O=C1NC(=O)C2=C1CCC2O (centres undefined)	> 100 µM (inactive)	> 100 µM (inactive)	> 100 µM (inactive)	> 100 µM (inactive)	> 100 µM (inactive)	> 100 µM (inactive)	> 100 µM (inactive)	> 100 µM (inactive)	> 100 µM (inactive)	> 100 µM (inactive)	> 100 µM (inactive)	> 100 µM (inactive)	> 100 µM (inactive)	> 100 µM	> 100 µM (inactive)	> 100 µM (inactive)	> 100 µM (inactive)	> 100 µM (inactive)		> 100 µM (inactive)
CCN(CCO)CC1COc2ccccc2O1 (centres undefined)	> 100 µM (inactive)	> 100 µM (inactive)	> 100 µM (inactive)	> 100 µM (inactive)	> 100 µM (inactive)	> 100 µM (inactive)	> 100 µM (inactive)	> 100 µM (inactive)	> 100 µM (inactive)	> 100 µM (inactive)	> 100 µM (inactive)	> 100 µM (inactive)	> 100 µM (inactive)	> 100 µM	> 100 µM (inactive)		> 100 µM (inactive)	> 100 µM (inactive)	> 100 µM (inactive)	> 100 µM (inactive)
